Source: patent US11084833B2, “Antibacterial agents against D,D- and L,D-transpeptidases” (priority 2016, dated 2021)
Entries after “also recorded” stand apart in the source; their conditions may differ. Like-named read-outs stand apart in the source and are kept apart here.

Test system: LdtMt2 constructs with single amino acid mutations (Tyr318, His336, His352 and Cys354)
Format: binding, M. tuberculosis

Structure (SMILES)	adduct formation with mutants (UPLC-MS, any of the mutant proteins)	ITC binding to mutants	adduct formation with mutants
C[C@@H](O)[C@H]1C(=O)N2C(C(=O)[O-])=C(SC3Cn4cnc[n+]4C3)[C@H](C)[C@H]12 (some centres unmarked) [biapenem]	no adducts could be detected		
C[C@@H](O)[C@H]1C(=O)N2C(C(=O)O)=C([C@H]3CCCO3)S[C@H]12 [faropenem]		loss of binding	failed to produce adducts; also recorded: did produce stable adducts
C[C@@H](O)[C@H]1C(=O)N2C(C(=O)O)=C(SC3CN(C4=NCCS4)C3)[C@H](C)[C@H]12 [tebipenem]		loss of binding	failed to produce adducts; also recorded: did produce stable adducts
